Measured values reported in ChEMBL document CHEMBL1144148, “DNA polymerase beta inhibitors from Baeckea gunniana” (J Nat Prod, 1999).

Key:
DNA polymerase beta [1] = target: T1, DNA polymerase beta (Rattus norvegicus, UniProt P06766); assay: Inhibition of rat DNA polymerase beta in presence of BSA
DNA polymerase beta [2] = target: T1, DNA polymerase beta; assay: Inhibition of rat DNA polymerase beta in absence of BSA
[3] = target: DNA polymerase beta (Rattus norvegicus) (UniProt P06766); assay: Inhibition of rat DNA polymerase beta at 50 ug/mL
[4] = target: DNA polymerase beta (Rattus norvegicus) (UniProt P06766); assay: Inhibition of rat DNA polymerase beta at 10 ug/mL

IC50 (DNA polymerase beta [1]) | IC50 (DNA polymerase beta [2]) | inhibition [3] | inhibition [4] | SMILES
5.6 µM | 2.5 µM | 82% | 68% | C=C1CC[C@]2(C(=O)O)CC[C@]3(C)[C@H](CC[C@@H]4[C@@]5(C)CC[C@H](O)C(C)(C)[C@@H]5CC[C@]43C)C2=C1C
5.3 µM | 3.2 µM | 80% | 65% | C=C1[C@H]2C3=CC[C@@H]4[C@@]5(C)CC[C@H](O)C(C)(C)[C@@H]5CC[C@@]4(C)[C@]3(C)CC[C@@]2(C(=O)O)CC[C@H]1C
7.5 µM | 3.7 µM | 90% | 42% | CC1(C)CC[C@]2(C(=O)O)CC[C@]3(C)C(=CC[C@@H]4[C@@]5(C)CC[C@H](O)C(C)(C)[C@@H]5CC[C@]43C)[C@@H]2C1 [OLEANOLIC_ACID]
8.5 µM | 4.8 µM | 90% | 55% | C[C@H]1[C@H](C)CC[C@]2(C(=O)O)CC[C@]3(C)C(=CC[C@@H]4[C@@]5(C)CC[C@H](O)C(C)(C)[C@@H]5CC[C@]43C)[C@H]12 [URSOLIC ACID]
